Laboratory results from patent US6303591A, “21-hydroxy-6,19-oxidoprogesterone (21OH-6OP) and its use as medicament for treating excess of glucocorticoids” (Applied Research Systems ARS Holding NV, priority 1997, dated 2001).
Entries after “also recorded” stand apart in the source; their conditions may differ.

How the values were obtained:
liver glycogen = liver glycogen deposition in vivo, adrenalectomized rats; design: species or system rat; conditions: FIG. 3-A; 100 μg steroid/100 g body weight
Experimental: (§1) FIG. 3: Biological Properties of 21OH-6OP: A) Glycogen storage in vivo: 100 μg steroid/100 g body weight of male rats were injected as indicated in Example 1. Liver glycogen was purified and quantified with Krisman's reagent (17). Controls were injected with vehicle. Results are expressed as means±SEM (n=6). (*): different from controls P<0.02. B) TAT induction in vitro: rat hepatocytes were incubated for 5 h in HAM-F12 medium in the presence of 100 nM steroid and TAT activity was measured. Results are expressed as percentage of enzyme activity (means±SEM, n=4) over controls incubated in the presence of vehicle. (*) different from controls P<0.01. C) Sodium-retaining activity: adrenalectomized rats were treated with the indicated dose of steroids. Results are expressed as the ratio of sodium-excretion rates of steroid-injected animals to the excretion rates of rats injected with vehicle.
(§2) Bioassay : Liver glycogen deposition was measured on adrenalectoniized male Sprague-Dawley rats (180-220 g) as follows: steroids were dissolved in ethanol/propylene glycol/0.9% NaCl solution (3:3:34) and 100 μg steroid/l00 g body weight were injected i.m. the previous night. On the morning of the experiment this dose was reinjected intraperitoneally. Three hours later the rats were killed by cervical dislocation and livers were immediately removed. Glycogen purification and quantification were carried out according to Krisman's method (17). Na^+ -retaining properties were measured as described (5). Tyrosine aminotransferase (TAT) was induced in rat hepatocytes isolated by the procedure of Fry et al (18). TAT activity was determined according to Granner and Tomkins (19).

[1] = target: T1, GR from rat thymus (thymus cytosol) (Rattus norvegicus, UniProt P06536); test: displacement of (^3 H)-B binding to GR, rat thymus cytosol
T1 construct: Thymuses were used as a source of GR; from tissue; host or cells: thymus cytosol, adrenalectomized male Sprague-Dawley rats
T1 sequence (P06536 1-795): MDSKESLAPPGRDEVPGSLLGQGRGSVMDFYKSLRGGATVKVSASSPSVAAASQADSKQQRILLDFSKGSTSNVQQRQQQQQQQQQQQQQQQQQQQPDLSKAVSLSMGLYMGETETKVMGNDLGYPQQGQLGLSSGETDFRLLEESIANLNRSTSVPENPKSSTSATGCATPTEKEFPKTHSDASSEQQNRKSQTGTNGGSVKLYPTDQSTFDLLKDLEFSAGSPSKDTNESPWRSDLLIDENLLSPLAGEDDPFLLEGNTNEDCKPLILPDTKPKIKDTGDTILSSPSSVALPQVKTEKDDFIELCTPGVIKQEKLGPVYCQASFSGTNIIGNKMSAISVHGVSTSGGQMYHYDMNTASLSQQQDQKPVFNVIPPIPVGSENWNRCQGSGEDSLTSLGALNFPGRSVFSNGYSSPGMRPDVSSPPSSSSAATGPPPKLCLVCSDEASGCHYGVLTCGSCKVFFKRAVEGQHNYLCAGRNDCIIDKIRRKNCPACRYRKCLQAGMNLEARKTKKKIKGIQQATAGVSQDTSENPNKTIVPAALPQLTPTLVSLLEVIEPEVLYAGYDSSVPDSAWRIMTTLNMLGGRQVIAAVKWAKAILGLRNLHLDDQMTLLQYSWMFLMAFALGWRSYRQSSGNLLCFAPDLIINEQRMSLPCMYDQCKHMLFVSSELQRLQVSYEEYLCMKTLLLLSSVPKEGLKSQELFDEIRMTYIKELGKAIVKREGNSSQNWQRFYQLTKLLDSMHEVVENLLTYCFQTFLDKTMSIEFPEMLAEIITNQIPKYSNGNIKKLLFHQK
Experimental: (§3) Binding Assay: Adrenalectomized male Sprague-Dawley rats were bled to death by heart puncture. Cold 0.9% NaCI was injected profusely through the aorta until organs were completely blanched. Thymuses were used as a source of GR and kidneys as a source of MR. Homogenization and incubation conditions were performed as previously described, (14) and (15), respectively. Briefly, homogenates performed in cold TEGM buffer at pH 7.4 (0.1 M Tris-HCl, 10 mM EDTA, 10 mM α-mercaptoethanol, 20 mM Na2 MoO4, 25% glycerol, 0.1 mM PMSF, 2.0 TIU/ml aprotinin and 1 mg% Leupeptin) were centrifuged at 37,000 rev. for 30 min at 0° C. Supernatants from this centrifugation are referred to as "cytosol". […] (^3 H)-P4 binding to uterus PR was assayed on immature female rats according to Jordan et al (16).
The displacement curve of 6,19-oxidoprogesterone is included for comparative purposes.

[2] = system: Na^+ retention (sodium-excretion rate); test: Na^+ -retaining activity, adrenalectomized rats; type: in vivo, rat
Experimental: as §1, §2

[3] = system: tyrosine aminotransferase (TAT) induction in rat hepatocytes; test: TAT induction in rat hepatocytes (agonism); type: cell-based; conditions: FIGS. 3-B and 4 (hatched bars), no agonist added
Experimental: as §1
Hatched bars represent incubations performed in the presence of vehicle instead of agonist.
as §2
The basal TAT activity in hepatocytes, denominated control in the figure, was measured by adding vehicle (final concentration: 0.2% ethanol) to the culture. […] 2.5 μM 21OH-6OP inhibits 80% of TAT induction when concubated with B or DXM.

type II sites (GR) = target: T2, type II sites (GR) (Rattus norvegicus, UniProt P06536); test: tracer binding (Scatchard) to kidney type II sites (GR); conditions: kidney cytosol, 2.5 μM 21OH-6OP
T2 construct: type II receptors in kidney cytosols; from tissue; host or cells: kidney cytosol, adrenalectomized male Sprague-Dawley rats
T2 sequence (P06536 1-795): T1 sequence (P06536 1-795)
Experimental: as §3
To study the binding of ALDO to kidney- MR without the competitive influence of the relatively more abundant GR, GR was removed with the specific ligand RU28362 (7).
The calculated Kd for type I sites in different conditions ranges between 0.4 and 1 nM (Table 1) which is at least eighty times higher than the affinity for type II sites.

## C[C@]12CC[C@H]3[C@@H](C[C@H]4OC[C@@]35CCC(=O)C=C45)[C@@H]1CC[C@@H]2C(=O)CO [21OH-6OP, 21-hydroxy-6,19-oxidoprogesterone]
Liver glycogen
  GC response: liver glycogen: neither 6OP nor 21OH-6OP evoke these responses
[1]; 21OH-6OP vs 6OP
  increase of binding to GR by 21-hydroxyl, relative to 6OP: over 40 times
[1]; FIG. 2 a, predicted
  saturation predicted according to mass action: 95%
[1]; FIG. 2 a, 720 min
  tracer displacement: 75%
[1]; rat thymus cytosol, 5 nM (^3 H)-B, 12 h at 0° C., read-out: RBA for GR (Kd)
  Kd: 125 nM
[2]; FIG. 3-C
  Na^+ -retaining (MC) properties (in words): almost devoid of MC properties; also recorded: then loosing activity at still higher doses
[2]; maximum of parabolic dose-response, at high doses
  maximum Na^+ retention: 40%
[3]
  TAT induction (in words): neither 6OP nor 21OH-6OP evoke these responses; also recorded: Neither 6OP nor 21OH-6OP facilitate TAT induction
Type II sites (GR)
  masking of (^3 H)-ALDO cross-reaction with GR / block of type II receptors: able to mask the cross reaction of (^3 H)-ALDO with GR; also recorded: able to block type II receptors in kidney cytosols
